“Also recorded” adds a separate entry of the source.
Experiments:
MAO-A = molecular target: T1, MAO-A (Rattus norvegicus, UniProt P21396); test: Time-dependence of MAO-A inhibition (pre-incubation times); type: biochemical
T1 construct: from tissue; host or cells: rat brain homogenate per the methods
T1 sequence (P21396 1-526): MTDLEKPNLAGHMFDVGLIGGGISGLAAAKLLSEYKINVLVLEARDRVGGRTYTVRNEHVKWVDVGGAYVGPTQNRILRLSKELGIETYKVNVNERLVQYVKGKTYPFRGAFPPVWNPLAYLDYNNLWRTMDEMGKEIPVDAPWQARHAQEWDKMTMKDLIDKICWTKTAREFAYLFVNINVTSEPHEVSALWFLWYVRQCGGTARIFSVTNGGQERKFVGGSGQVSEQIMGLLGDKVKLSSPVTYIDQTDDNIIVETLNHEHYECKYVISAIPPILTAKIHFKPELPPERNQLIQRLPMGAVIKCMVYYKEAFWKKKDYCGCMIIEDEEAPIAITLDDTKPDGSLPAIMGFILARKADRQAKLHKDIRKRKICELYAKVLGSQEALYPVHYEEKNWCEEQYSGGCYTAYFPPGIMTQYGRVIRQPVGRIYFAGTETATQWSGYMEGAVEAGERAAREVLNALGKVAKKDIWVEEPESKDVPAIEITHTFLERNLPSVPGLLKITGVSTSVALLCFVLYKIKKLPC
Method: (§1) Lineweaver-Burk reciprocal plots of initial velocity and substrate concentrations (0.1-1 mM) are presented. […] Lineweaver-Burk reciprocal plots of initial velocity and substrate concentrations (0.1-1 mM) are presented. […] Lineweaver-Burk reciprocal plots of initial velocity and substrate concentrations (0.1-1 mM) are presented. […] Three consecutive centrifuges were performed with buffer. […] 5 µM). All solution were made using Tris buffer pH7.4. […] 5 µM). All solution were made using Tris buffer pH7.4. […] 5 µM). All solution were made using Tris buffer pH7.4. Spectra were obtained after a Short-time incubation
Independent inhibition assays were also performed at different pre-incubation periods for both two MAO isoforms (Figure 6). […]

[1] = Metal binding assay, spectrophotometric detection of Fe(III) complex; type: physicochemical; settings: 10 µM, Tris buffer pH7.4, Fe2(SO4)3 6.25 and 12.5 µM
Method: as §1, with “Spectra were obtained after a Short-time incubation” left out
It is known that 8-quinolinol is a strong chelator for biometals such iron and copper. This is an important precondition for the antioxidative-type drugs because it is the excessive iron stores and iron-mediated generation of free radicals in the brain that are thought to be associated with neurodegenerative diseases. Therefore, only chelators with a higher selectivity for iron over copper are expected to chelate iron instead of copper and have potential neuroprotective effects. […] A spectrophotometric method is used for measurement of the copper/iron-complexes stability constants of the compounds.
The metal binding assay was performed by the spectrophotometric detection of the formation of Fe(III)- and Cu(II)-6 complex.

ratMAO-A = molecular target: T2, ratMAO-A (Rattus norvegicus, UniProt P21396); test: MAO-A inhibition, radiometric method of Fowler and Tipton (14C 5-HT); type: biochemical; design: MAO-A and MAO-B activities were determined in rat brain homogenate; from tissue; host or cells: rat brain homogenate per the methods
T2 sequence (P21396 1-526): T1 sequence (P21396 1-526)

bovine lung SSAO = molecular target: T3, bovine lung SSAO (Bos taurus, UniProt Q9TTK6); test: Inhibition of semicarbazide sensitive amine oxidase (SSAO), radiochemical; type: biochemical
T3 construct: and bovine lung SSAO by compounds of the invention; from tissue; host or cells: bovine lung
T3 sequence (Q9TTK6 1-763): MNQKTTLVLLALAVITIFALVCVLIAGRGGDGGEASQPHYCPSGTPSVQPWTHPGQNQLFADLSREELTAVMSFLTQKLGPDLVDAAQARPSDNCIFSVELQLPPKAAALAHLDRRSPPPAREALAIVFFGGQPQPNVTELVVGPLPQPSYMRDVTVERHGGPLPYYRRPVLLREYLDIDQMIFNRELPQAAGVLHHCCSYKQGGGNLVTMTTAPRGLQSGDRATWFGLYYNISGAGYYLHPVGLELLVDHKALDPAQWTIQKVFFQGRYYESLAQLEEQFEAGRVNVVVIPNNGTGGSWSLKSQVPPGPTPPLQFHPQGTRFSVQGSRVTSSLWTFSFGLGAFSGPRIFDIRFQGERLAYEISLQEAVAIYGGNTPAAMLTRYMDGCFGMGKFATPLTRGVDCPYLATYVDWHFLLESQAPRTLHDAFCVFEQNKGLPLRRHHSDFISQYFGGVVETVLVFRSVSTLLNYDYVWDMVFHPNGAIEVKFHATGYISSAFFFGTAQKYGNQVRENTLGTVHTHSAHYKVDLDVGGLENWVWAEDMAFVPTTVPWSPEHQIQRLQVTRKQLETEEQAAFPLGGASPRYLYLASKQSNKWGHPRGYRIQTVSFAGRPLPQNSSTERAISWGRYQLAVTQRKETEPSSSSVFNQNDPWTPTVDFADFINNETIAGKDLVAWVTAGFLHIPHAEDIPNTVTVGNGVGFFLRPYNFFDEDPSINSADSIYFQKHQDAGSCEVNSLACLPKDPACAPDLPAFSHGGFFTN

[2] = 20 µM, pre-incubation times 0-360 min

Question: For `C#CCN(Cc1ccc(O)c2ncccc12)C(C#N)CCC1CCN(Cc2ccccc2)CC1` (stereo not drawn) [Compound 6, 4-(1-benzylpiperidin-4-yl)-2-(((8-hydroxyquinolin-5-yl)methyl)(prop-2-yny)amino)butanenitrile], which “pre-incubation period to complete MAO-A activity inhibition” value (MAO-A; [2]) is on record?
Answer: Its value is at least 180 min.

Question: And the “time-dependence of MAO-A inhibition” value (MAO-A; [2])?
Answer: The value was “irreversible behaviour; also recorded: time-dependent”.

Question: And the IC50 (MAO-A; pre-incubation time 0 min)?
Answer: The IC50 was 29.1 µM.

Question: What about the IC50 (MAO-A; pre-incubation time 30 min) of the same molecule?
Answer: The IC50 was 5.8 µM.

Question: And the IC50 (MAO-A; pre-incubation time 60 min)?
Answer: The IC50 was 2.3 µM.

Question: And the IC50 (MAO-A; pre-incubation time 240 min)?
Answer: The IC50 was 0.7 µM.

Question: What about the “formation of Fe(III)-6 complex, UV-vis spectrum change” value ([1]; few minutes after addition) of the same molecule?
Answer: The value was “no significative changes in the spectrum were observed”.

Question: What about the “formation of Fe(III)-6 complex, UV-vis spectrum change” value ([1]; overnight incubation) of the same molecule?
Answer: Its value is “bathocromic shift of the 240nm-band to the appearance of another one at 250nm”.

Question: What about the IC50 (ratMAO-A) of the same molecule?
Answer: The IC50 was 6.16 ± 0.7 µM.

Question: And the “fold less active than M-30 for the inhibition of MAO-A” value (ratMAO-A)?
Answer: Its value is 166 fold.

Question: What about the “fold more active than donepezil 1 for MAO-A” value (ratMAO-A) of the same molecule?
Answer: Its value is 138 fold.

Question: What about the IC50 (bovine lung SSAO) of the same molecule?
Answer: The IC50 was 2.01 ± 0.5 µM.

From patent EP2727916A1, “Neuroprotective multi-target directed drugs” (Universitat Autònoma de Barcelona, priority 2012, dated 2014)
